Test results from patent publication US11820766B2, “Monoacylglycerol lipase modulators” (Janssen Pharmaceutica NV, priority 2018, dated 2023).

What follows are molecules tested against T1, human MGL from HeLa cells (Homo sapiens, UniProt Q99685) (assay: In vitro MGL activity assay: [glycerol-1,3-3H]-oleyl glycerol cleavage by MGL from HeLa cells). Conditions: 300 nM [Glycerol-1,3-3H]-oleyl glycerol, one hour incubation.
T1 construct: combining endogenously expressed MGL from HeLa cells with test compounds; endogenous in cells; host or cells: HeLa cells / cell homogenates
T1 sequence (Q99685 1-303): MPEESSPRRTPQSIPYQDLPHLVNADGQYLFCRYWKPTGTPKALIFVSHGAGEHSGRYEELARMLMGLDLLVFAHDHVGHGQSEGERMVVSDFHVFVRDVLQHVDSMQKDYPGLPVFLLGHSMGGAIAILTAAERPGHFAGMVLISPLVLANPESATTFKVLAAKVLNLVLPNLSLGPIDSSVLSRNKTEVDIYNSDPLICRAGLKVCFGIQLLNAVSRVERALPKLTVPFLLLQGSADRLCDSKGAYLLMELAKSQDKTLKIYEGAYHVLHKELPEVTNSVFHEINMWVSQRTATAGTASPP
Format: biochemical
Description: MGL is the predominant hydrolase in HeLa cells/cell homogenates.
`C[C@H]1c2nn(C)c(-c3cccc(Cl)c3)c2CCN1C(=O)c1cc(CO)ccn1` [Example 119, (S)-(3-(3-Chlorophenyl)-2,7-dimethyl-2,4,5,7-tetrahydro-6H-pyrazolo[3,4-c]pyridin-6-yl)(4-(hydroxymethyl)pyridin-2-yl)methanone] showed an IC50 of 398 nM.
`COCc1cncc(C(=O)N2CCc3c(nn(C)c3-c3cccc(Cl)c3)[C@@H]2C)c1` [Example 120, (S)-(3-(3-Chlorophenyl)-2,7-dimethyl-2,4,5,7-tetrahydro-6H-pyrazolo[3,4-c]pyridin-6-yl)(5-(methoxymethyl)pyridin-3-yl)methanone] was tested, and the IC50 was 174 nM.
`CC(C)Oc1ccc(C(=O)N2CCc3c(nn(C)c3-c3cccc(Cl)c3)[C@@H]2C)cn1` [Example 121, (S)-(3-(3-Chlorophenyl)-2,7-dimethyl-2,4,5,7-tetrahydro-6H-pyrazolo[3,4-c]pyridin-6-yl)(6-isopropoxypyridin-3-yl)methanone] gave an IC50 of 330 nM.
`CC(C)Oc1cncc(C(=O)N2CCc3c(nn(C)c3-c3cccc(Cl)c3)[C@@H]2C)c1` [Example 122, (S)-(3-(3-Chlorophenyl)-2,7-dimethyl-2,4,5,7-tetrahydro-6H-pyrazolo[3,4-c]pyridin-6-yl)(5-isopropoxypyridin-3-yl)methanone] gave an IC50 of 78.2 nM.
`C[C@H]1c2nn(C)c(-c3cccc(Cl)c3)c2CCN1C(=O)c1cccc2c1OCO2` [Example 123, (S)-Benzo[d][1,3]dioxol-4-yl(3-(3-chlorophenyl)-2,7-dimethyl-2,4,5,7-tetrahydro-6H-pyrazolo[3,4-c]pyridin-6-yl)methanone] gave an IC50 of 45.1 nM.
For `C[C@H]1c2nn(C)c(-c3cccc(Cl)c3)c2CCN1C(=O)c1ccc2[nH]c(=O)oc2c1` [Example 124, (S)-6-(3-(3-Chlorophenyl)-2,7-dimethyl-4,5,6,7-tetrahydro-2H-pyrazolo[3,4-c]pyridine-6-carbonyl)benzo[d]oxazol-2(3H)-one], the IC50 was 19.7 nM.
For `Cc1nc2ccc(C(=O)N3CCc4c(nn(C)c4-c4cccc(Cl)c4)[C@@H]3C)cc2o1` [Example 125, (S)-(3-(3-Chlorophenyl)-2,7-dimethyl-2,4,5,7-tetrahydro-6H-pyrazolo[3,4-c]pyridin-6-yl)(2-methylbenzo[d]oxazol-6-yl)methanone], the IC50 was 9.52 nM.
`C[C@H]1c2nn(C)c(-c3cccc(Cl)c3)c2CCN1C(=O)c1cc2ncccc2o1` [Example 129, (S)-(3-(3-Chlorophenyl)-2,7-dimethyl-2,4,5,7-tetrahydro-6H-pyrazolo[3,4-c]pyridin-6-yl)(furo[3,2-b]pyridin-2-yl)methanone] gave an IC50 of 47.2 nM.
Molecule `C[C@H]1c2nn(C)c(-c3cccc(Cl)c3)c2CCN1C(=O)c1ccc2cc[nH]c2n1` [Example 130, (S)-(3-(3-Chlorophenyl)-2,7-dimethyl-2,4,5,7-tetrahydro-6H-pyrazolo[3,4-c]pyridin-6-yl)(1H-pyrrolo[2,3-b]pyridin-6-yl)methanone] has an IC50 of 274 nM.
Molecule `C[C@H]1c2nn(C)c(-c3cccc(Cl)c3)c2CCN1C(=O)c1ccc2ncccc2n1` [Example 131, (S)-(3-(3-Chlorophenyl)-2,7-dimethyl-2,4,5,7-tetrahydro-6H-pyrazolo[3,4-c]pyridin-6-yl)(1,5-naphthyridin-2-yl)methanone] has an IC50 of 46.2 nM.
`C[C@H]1c2nn(C)c(-c3cccc(Cl)c3)c2CCN1C(=O)c1cc(Br)c2nccnc2c1` [Example 135, (S)-(8-Bromoquinoxalin-6-yl)(3-(3-chlorophenyl)-2,7-dimethyl-2,4,5,7-tetrahydro-6H-pyrazolo[3,4-c]pyridin-6-yl)methanone] was tested, and the IC50 was 10.6 nM.
For `CCC1c2nn(C)c(-c3cccc(F)c3)c2CCN1C(=O)c1ccc2ncccc2c1` (stereo not shown) [Example 136, (7-Ethyl-3-(3-fluorophenyl)-2-methyl-2,4,5,7-tetrahydro-6H-pyrazolo[3,4-c]pyridin-6-yl)(quinolin-6-yl)methanone], the IC50 was 31.4 nM.
For `C[C@H]1c2nn(C)c(-c3cc(F)cc(F)c3)c2CCN1C(=O)c1ccccc1OCCF` [Example 137, [(7S)-3-(3,5-Difluorophenyl)-2,7-dimethyl-5,7-dihydro-4H-pyrazolo[3,4-c]pyridin-6-yl]-[2-(2-fluoroethoxy)phenyl]methanone], the IC50 was 240 nM.
Work on `C[C@H]1c2nn(C)c(-c3cc(F)cc(F)c3)c2CCN1C(=O)c1ccc(OCCF)cc1` [Example 138, (S)-(3-(3,5-Difluorophenyl)-2,7-dimethyl-2,4,5,7-tetrahydro-6H-pyrazolo[3,4-c]pyridin-6-yl)(4-(2-fluoroethoxy)phenyl)methanone] yielded an IC50 of 39.5 nM.
`C[C@H]1c2nn(C)c(-c3cc(F)cc(F)c3)c2CCN1C(=O)c1cccc(OCCF)c1` [Example 139, (S)-(3-(3,5-Difluorophenyl)-2,7-dimethyl-2,4,5,7-tetrahydro-6H-pyrazolo[3,4-c]pyridin-6-yl)(3-(2-fluoroethoxy)phenyl)methanone] showed an IC50 of 9.8 nM.
For `C[C@H]1c2nn(C)c(-c3cc(F)cc(F)c3)c2CCN1C(=O)c1cccc(OCCF)c1F` [Example 141, (S)-(3-(3,5-Difluorophenyl)-2,7-dimethyl-2,4,5,7-tetrahydro-6H-pyrazolo[3,4-c]pyridin-6-yl)(2-fluoro-3-(2-fluoroethoxy)phenyl)methanone], the IC50 was 1.72 nM.
Molecule `C[C@H]1c2nn(C)c(-c3cc(F)cc(F)c3)c2CCN1C(=O)c1cc(OCCF)ccc1F` [Example 142, (S)-(3-(3,5-Difluorophenyl)-2,7-dimethyl-2,4,5,7-tetrahydro-6H-pyrazolo[3,4-c]pyridin-6-yl)(2-fluoro-5-(2-fluoroethoxy)phenyl)methanone] has an IC50 of 3.7 nM.
`C[C@H]1c2nn(C)c(-c3cc(F)cc(F)c3)c2CCN1C(=O)c1cc(F)cc(OCCF)c1` [Example 143, (S)-(3-(3,5-Difluorophenyl)-2,7-dimethyl-2,4,5,7-tetrahydro-6H-pyrazolo[3,4-c]pyridin-6-yl)(3-fluoro-5-(2-fluoroethoxy)phenyl)methanone] gave an IC50 of 4.21 nM.
Molecule `C[C@H]1c2nn(C)c(-c3cc(F)cc(F)c3)c2CCN1C(=O)c1ccc(F)c(OCCF)c1` [Example 144, (S)-(3-(3,5-Difluorophenyl)-2,7-dimethyl-2,4,5,7-tetrahydro-6H-pyrazolo[3,4-c]pyridin-6-yl)(4-fluoro-3-(2-fluoroethoxy)phenyl)methanone] has an IC50 of 55 nM.
In the case of `C[C@H]1c2nn(C)c(-c3cc(F)cc(F)c3)c2CCN1C(=O)c1cccc(OCCF)c1Cl` [Example 145, [2-Chloro-3-(2-fluoroethoxy)phenyl]-[(7S)-3-(3,5-difluorophenyl)-2,7-dimethyl-5,7-dihydro-4H-pyrazolo[3,4-c]pyridin-6-yl]methanone], the IC50 is reported as 2.13 nM.
Work on `C[C@H]1c2nn(C)c(-c3cc(F)cc(F)c3)c2CCN1C(=O)c1cc(OCCF)ccc1Cl` [Example 146, (2-Chloro-5-(2-fluoroethoxy)phenyl)(3-(3,5-difluorophenyl)-2,7-dimethyl-2,4,5,7-tetrahydro-6H-pyrazolo[3,4-c]pyridin-6-yl)methanone] yielded an IC50 of 3.73 nM.
Molecule `C[C@H]1c2nn(C)c(-c3cc(F)cc(F)c3)c2CCN1C(=O)c1ccccc1-n1nccn1` [Example 147, (S)-(2-(2H-1,2,3-Triazol-2-yl)phenyl)(3-(3,5-difluorophenyl)-2,7-dimethyl-2,4,5,7-tetrahydro-6H-pyrazolo[3,4-c]pyridin-6-yl)methanone] has an IC50 of 71.7 nM.
